According to PMC10439952, “JT002, a small molecule inhibitor of the NLRP3 inflammasome for the treatment of autoinflammatory disorders” (Scientific Reports, 2023):

Columns and labels:
NLRP3 inflammasome = NLRP3 inflammasome (Homo sapiens, UniProt Q96P20); experiment: Inhibition of IL-1β production in LPS stimulated (alternative pathway) human whole blood; type: cell-based
Protocol: Inflammasome activation and whole blood assays were essentially carried out as described earlier. Details can be found in the supplementary information section accompanying this publication. A protocol for blood draws from healthy volunteers and use of the blood in preclinical assays was approved by Western Institutional Review Board, Inc (Puyallup, WA, USA). Informed consent was obtained from each donor prior to the first blood draw.
Cell viability was determined by addition of an equal volume of CellTiter-Glo® 2.0 reagent (Promega) to the remaining cells/supernatant in each well. Intracellular Caspase-1 activity was measured using the Caspase-Glo® assay (Promega) according to the manufacturer’s instructions. The biochemical capsase-1 assay was conducted at Reaction Biology Corporation (Malvern, USA). Human IL-1β, IL-1α, and TNFα and mouse IL-1β were measured in cell culture supernatants using homogeneous time resolved fluorescence assay kits (HTRF, Cisbio, Codolet, France). Human IL-18 was measured in cell culture supernatants using an ELISA kit (R&D Systems, Minneapolis, MN, USA). Plasma IL-1β concentrations were determined by Quantikine® ELISA (R&D Systems, Minneapolis, MN). […]
flagellin, prepared in Opt iMEM and combined with Lipofectamine 2000. […]

[1] = Plasma JT002 concentrations in mice after a single oral dose; type: in vivo, mouse; conditions: single oral dose 25 mg/kg
Protocol: In vivo pharmacodynamics (PD) were evaluated in mice for determination of target engagement as this species is routinely used for assessment of preclinical efficacy. Treatment of fresh, whole blood with LPS plus ATP results in the NLRP3-dependent release of IL-1β, thus providing a robust method for tracking target engagement of NLRP3 inflammasome inhibitors in the circulation after oral dose administration[36],[47]. In vivo target engagement using ex vivo stimulation of blood was evaluated in mice at various times after oral dosing of JT002. For each time point tested, one group of mice received a single oral dose of 25 mg/kg JT002 (n = 8/group) and another group received the vehicle control (n = 8/group). At the time of harvest, blood was collected from each animal and an aliquot removed and processed to plasma for determination of JT002 concentrations. The remaining blood was stimulated ex vivo with LPS plus ATP followed by analysis of IL-1β concentrations (Fig. 3A). […] Consistent with these findings, plasma concentrations of JT002 decreased over time, with mean concentrations of ≥ 4.0 µM through 8 h and a mean concentration of 6 nM at the 24-h sampling (Fig. 3C,D). […]

Chain of NLRP3 inflammasome (Q96P20 whole entry): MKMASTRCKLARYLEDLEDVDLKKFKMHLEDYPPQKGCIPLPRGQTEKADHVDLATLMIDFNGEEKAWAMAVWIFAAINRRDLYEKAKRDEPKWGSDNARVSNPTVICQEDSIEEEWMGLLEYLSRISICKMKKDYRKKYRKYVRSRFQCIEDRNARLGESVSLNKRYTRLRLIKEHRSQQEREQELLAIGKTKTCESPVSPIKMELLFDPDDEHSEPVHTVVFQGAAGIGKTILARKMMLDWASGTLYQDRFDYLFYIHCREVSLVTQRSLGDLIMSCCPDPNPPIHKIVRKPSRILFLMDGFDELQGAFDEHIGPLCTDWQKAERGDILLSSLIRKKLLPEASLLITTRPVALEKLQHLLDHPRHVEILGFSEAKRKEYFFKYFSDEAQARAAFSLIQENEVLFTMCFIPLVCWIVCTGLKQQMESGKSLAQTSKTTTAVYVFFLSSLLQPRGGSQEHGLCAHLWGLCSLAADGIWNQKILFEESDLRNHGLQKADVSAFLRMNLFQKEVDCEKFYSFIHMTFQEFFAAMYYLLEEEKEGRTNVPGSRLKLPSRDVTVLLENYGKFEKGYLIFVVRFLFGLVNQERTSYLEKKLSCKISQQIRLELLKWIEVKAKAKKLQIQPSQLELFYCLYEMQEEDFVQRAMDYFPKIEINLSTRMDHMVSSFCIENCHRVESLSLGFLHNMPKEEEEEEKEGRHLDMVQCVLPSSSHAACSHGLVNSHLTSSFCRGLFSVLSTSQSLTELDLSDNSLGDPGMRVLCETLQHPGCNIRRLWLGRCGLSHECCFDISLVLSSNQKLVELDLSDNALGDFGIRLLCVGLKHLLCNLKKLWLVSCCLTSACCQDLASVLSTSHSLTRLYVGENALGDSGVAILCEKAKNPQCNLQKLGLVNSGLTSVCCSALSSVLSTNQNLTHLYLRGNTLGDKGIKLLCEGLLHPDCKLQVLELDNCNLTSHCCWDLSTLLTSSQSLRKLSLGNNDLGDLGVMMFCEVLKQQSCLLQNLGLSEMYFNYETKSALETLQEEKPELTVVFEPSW

IC50 (NLRP3 inflammasome; Human whole blood, LPS only (alternative pathway), read-out: Geo Av IC50, IL-1β): 32 nM | IC50 in human whole blood, alternative (LPS) versus canonical (LPS + ATP) NLRP3 pathway activation (NLRP3 inflammasome; how much lower the alternative pathway IC50 is): threefold more potent | concentration at 24 h ([1]; male, C57BL/6, mouse, plasma, 24-h sampling): 6 nM | concentration at 24 h ([1]; through 8 h): ≥ 4000 nM
SMILES: CO[C@@H]1COc2c(S(=O)(=O)NC(=O)Nc3c4c(cc5c3CCC5)CCC4)cnn2C1 [JT002]
